PMC10388305, “Synthesis and Evaluation of a Monomethyl Auristatin E—Integrin αvβ6 Binding Peptide–Drug Conjugate for Tumor Targeted Drug Delivery” (Journal of Medicinal Chemistry, 2023)

Tested on: cells expressing the integrin αvβ6
Test: Internalization assay
Type: cell-based
Conditions: all cells expressing the integrin αvβ6; acidic wash pH 2.5; γ-counter
Description: Binding to cells with minimal to no expression of integrin αvβ6 was low at 4.4 ± 0.1% to DX3puro cells and 7.9 ± 0.4% to pancreatic MIA PaCa-2 cells. Binding of [^64Cu]PDC-1 to DX3puroβ6 (+) and BxPC-3 (+) was reduced by adding increasing amounts of DOTA-PDC-1, illustrating that the αvβ6-selective uptake could be blocked (Figure S3). Internalization of [^64Cu]-PDC-1 into cells was high with >50% of the bound radioactivity internalized for all cells expressing the integrin αvβ6. In comparison, cell binding of [^64Cu]2 to DX3puroβ6 (+) cells was 58.8 ± 2.3, and 3.3 ± 0.4% to the DX3puro (−) cells.
Cell binding and internalization assay. Binding and internalization were determined as previously described. […] The fraction of bound radioactivity was determined with a γ-counter (by measuring cell pellet and combined supernatants). To determine the fraction of internalized radioactivity, the cells were re-pelleted, and re-suspended in acidic wash buffer (0.2 M sodium acetate, 0.5 M sodium chloride, pH = 2.5, 300 μL, 4 °C, 5 min) to release surface bound activity, followed by a wash with PBS (300 μL). The internalized fraction was determined with a γ-counter (cell pellet vs. radioactivity released into supernatant). A Wizard 1470 or Wizard 2 2470 automatic γ-counter (Perkin-Elmer, Waltham, MA) was used to measure radioactivity samples. […]

With `CC[C@H](C)[C@@H]([C@@H](CC(=O)N1CCC[C@H]1[C@H](OC)[C@@H](C)C(=O)N[C@H](C)[C@@H](O)c1ccccc1)OC)N(C)C(=O)[C@@H](NC(=O)[C@H](C(C)C)N(C)C(=O)OCc1ccc(NC(=O)[C@H](CCCNC(N)=O)NC(=O)[C@@H](NC(=O)CCOCCOCCNC(=O)CCN2C(=O)CC(SC[C@H](NC(=O)CN3CCN(CC(=O)O)CCN(CC(=O)O)CCN(CC(=O)O)CC3)C(=O)NCCOCCOCCOCCOCCOCCOCCOCCOCCOCCOCCOCCOCCOCCOCCOCCOCCOCCOCCOCCOCCOCCOCCOCCOCCOCCOCCOCCOCCC(=O)N[C@@H](CC(N)=O)C(=O)N[C@@H](C)C(=O)N[C@H](C(=O)N3CCC[C@H]3C(=O)N[C@@H](CC(N)=O)C(=O)N[C@@H](CC(C)C)C(=O)N[C@@H](CCCNC(=N)N)C(=O)NCC(=O)N[C@@H](CC(=O)O)C(=O)N[C@@H](CC(C)C)C(=O)N[C@@H](CCC(N)=O)C(=O)N[C@H](C(=O)N[C@@H](CC(C)C)C(=O)N[C@@H](C)C(=O)N[C@@H](CCC(N)=O)C(=O)N[C@@H](CCCNC(=N)N)C(=O)N[C@H](C(=O)N[C@@H](C)C(=O)N[C@@H](CCCNC(=N)N)C(=O)N[C@H](C(=O)NCCOCCOCCOCCOCCOCCOCCOCCOCCOCCOCCOCCOCCOCCOCCOCCOCCOCCOCCOCCOCCOCCOCCOCCOCCOCCOCCOCCOCCC(N)=O)[C@@H](C)O)C(C)C)C(C)C)C(C)C)C2=O)C(C)C)cc1)C(C)C` (stereo partly shown) [[^64Cu]PDC-1, metal not drawn] the “Internalization, fraction of the bound radioactivity internalized” value was over 50%.
